Assay results as given in PMC4143292, “An Enzymatic Platform for the Synthesis of Isoprenoid Precursors” (PLoS ONE, 2014).

Biological target: T1, DPM-DC (diphosphomevalonate decarboxylase) (Streptococcus pneumoniae, UniProt A0A0H2UNP0)
T1 construct: gene mvaD; N-terminal His9-GST tag removed with PreScission protease; expressed in E. coli BL21(DE3)
T1 sequence (A0A0H2UNP0 1-317): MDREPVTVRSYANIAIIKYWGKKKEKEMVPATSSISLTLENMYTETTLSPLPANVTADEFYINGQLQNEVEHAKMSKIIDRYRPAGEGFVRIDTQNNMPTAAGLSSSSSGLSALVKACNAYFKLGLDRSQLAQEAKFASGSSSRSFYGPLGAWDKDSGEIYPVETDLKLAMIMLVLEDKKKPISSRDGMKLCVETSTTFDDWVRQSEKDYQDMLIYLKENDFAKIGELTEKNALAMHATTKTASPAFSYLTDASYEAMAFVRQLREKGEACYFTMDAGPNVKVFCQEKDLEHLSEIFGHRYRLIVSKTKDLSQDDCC
Assay: PK/LDH-coupled NADH oxidation
Type: biochemical
Conditions: ATP 2.0 mM, MgCl2 1.0 mM + nucleotide, KCl 50 mM, Hepes pH 8.0, 25 C

Question: How did the “PK/LDH-coupled NADH oxidation” value turn out when `C[C@@](O)(CCOP(=O)(O)OP(=O)(O)O)CC(=O)O` [DPM] was run?
Answer: DPM formation was assayed by adding an aliquot the DPM-synthesis reaction into a DPM decarboxylase
